Test results taken from patent US5840745A, “Hydrosoluble 3-arylidene-2-oxindole derivatives as tyrosine kinase inhibitors” (Pharmacia S. p. A., priority 1995, dated 1998).
Where a name gives a salt, the structure may show the parent alone.

Key:
[1] = molecular target: p45 v-abl tyrosine kinase; test: in vitro p45 v-abl kinase assay ((Val^5)-Angiotension II phosphorylation); format: biochemical, Abelson murine leukaemia virus; settings: 40 ng purified abl-kinase; peptide (2 Mm) and ATP (50 μM); 30° C., pH 8.0; triplicated determinations; read-out: IC50 v-abl, inhibition of p45 v-abl kinase
Description: p45 v-abl Kinase Purification
The enzyme used in our test was the p45 v-abl tyrosine kinase which represents the catalytic domain of the Abelson tyrosine kinase (isolated from the Abelson murine leukaemia virus). The p45 v-abl kinase was produced and isolated as described by Wang et al. in J. Biol. Chem. 260, 64 (1985) and by Ferguson et al. in J. Biol. Chem. 260, 3652 (1985) and in Biochem. J. 257, 321 (1989).
(Val^5)-Angiotension II phosphorylation was performed by incubation with 40 ng of purified abl-kinase and (γ-^32 p)-ATP, in 50 μl of buffer containing Tris-HCl 25 mM, pH 8.0, MgCl2 10 mM and dithiothreitol 0.1 mM (kinase buffer). The reaction mixture was incubated for the indicated time at 30° C. and the reaction stopped by adding 50 μl of 5% trichloroacetic acid. After a brief incubation on ice, tubes were centrifuged. The supernatants were spotted on phosphocellulose paper squares (Whatman P-81) and washed extensively in acetic acid. The radioactivity bound to dried phosphocellulose squares was measured in a liquid scintillation counter. IC50 values were calculated from triplicated determinations of each experimental point. Each inhibitor was tested at concentrations ranging from […] in the presence of fixed concentrations of peptide (2 Mm) and ATP (50 μM). […]

[2] = test system: K562 cells (human chronic myeloid leukemia); test: K562 cell growth inhibition assay; format: cell-based; settings: 72 h, 10000 cells/well, cell count versus untreated control cells
Description: K562 Cell Growth Inhibition Assay
K562 cells, a human myelogenous leukemia cell line, were seeded into a 24 wells tissue culture plate (Falcon 3047) (10000/well) in the presence of increasing concentrations of the compounds. After 72 h, cells were harvested and were counted using a cell counter (Coulter Counter--ZM). The percent of inhibition was evaluated in respect to the untreated control cells.
The inhibitory activity data for two representative compounds according to the present invention, obtained both in the in vitro p45 v-abl kinase assay and the in vivo human chronic myeloid leukemia K562 cell growth inhibition assay described above, are set out in the following Table I.

Compound: CCOC(=O)c1ccc2c(c1)C(=Cc1c[nH]c3ccc(OC)cc13)C(=O)N2 [5-carboethoxy-3-(5-methoxyindol-3-ylmethylene)-2-oxindole]
- IC50 [1]: 1990 nM
- IC50 [2]: 2340 nM

Compound: COc1ccc2[nH]cc(C=C3C(=O)Nc4ccc(NC(=O)CCN5CCCCC5)cc43)c2c1 [5-(3-piperidinopropionylamino)-3-(5-methoxyindol-3-ylmethylene)-2-oxindole.HCl]
- IC50 [1]: 1730 nM
- IC50 [2]: 3700 nM
